Experiments:
[1] = Long term storage in tubes (glass vs polypropylene); type: in vitro ADME
Text: Most preferred are Vacutainer tubes containing lithium-heparin as an anticoagulant.

Stability in plasma = test: Stability in plasma
Protocol: (§1) Nicotinic acid, nicotinamide and nicotinuric acid are stable in plasma when frozen (at −20±5° C.) for 64 days and after 3 freeze/thaw cycles. When kept at room temperature, nicotinic acid in plasma becomes unstable after 24 hours.

[2] = Protocol: as §1
Remark: listed apart in the source
[3] = test system: NAD and NADP in whole blood; details: individuals undergoing niacin therapy; average pretherapy value 175; cited from earlier work

| Structure (SMILES) | change in concentration on long term storage in polypropylene tubes [1] | time stable in plasma when frozen (Stability in plasma; 64 days) [days] | stability in plasma after freeze/thaw cycles (Stability in plasma; plasma) | stability in fresh whole blood [2] | time stable in serum when refrigerated (refrigerated) [days] | time stable in serum at room temperature (room temperature) [days] | time after which unstable in plasma at room temperature (Stability in plasma; 24 hours) [h] | average niacin number after niacin supplements [3] | stability in plasma after freeze/thaw cycles (Stability in plasma; plasma, after 3 freeze/thaw cycles) | time stable in plasma when frozen (Stability in plasma; plasma, frozen at −20±5° C.) [days] |
| --- | --- | --- | --- | --- | --- | --- | --- | --- | --- | --- |
| NC(=O)c1cccnc1 [nicotinamide] | significant changes in the concentration | 64 | stable |  |  |  |  |  |  |  |
| O=C(O)c1cccnc1 [nicotinic acid, pyridine 3-carboxylic acid] |  | 64 | stable | neither nicotinic acid nor the active metabolites were stable | 15 | 15 | 24 | 665 |  |  |
| O=C(O)CNC(=O)c1cccnc1 [nicotinuric acid] |  |  |  |  |  |  |  |  | stable | 64 |

— patent US20130037709A1, “Method for Clinically Monitoring Niacin and Niacin Metabolites in Serum or Plasma” (priority 2010, published 2013)
